Assay results from ChEMBL document CHEMBL5321247, “Discovery of NXT-10796, an orally active, intestinally restricted EP4 agonist prodrug for the treatment of inflammatory bowel disease” (Bioorg Med Chem Lett, 2023).
Calls of active or inactive are those of the source. No cut-off for these calls is given here.

Assays:
[1] = Drug uptake in BALB/c mouse Feces at 1 mg/kg, po measured at 24 hrs; format: ADME, organism-based; conditions: in vivo
[2] = Drug uptake in BALB/c mouse Colon at 1 mg/kg, po measured at 24 hrs; format: ADME, organism-based; conditions: in vivo
[3] = Drug uptake in BALB/c mouse plasma at 1 mg/kg, po or iv; format: ADME, organism-based; conditions: in vivo
[4] = Drug uptake in BALB/c mouse Colon at 1 mg/kg, po; format: ADME, organism-based; conditions: in vivo
[5] = Cmax in BALB/c mouse plasma at 1 mg/kg, po or iv measured at 24 hrs; format: ADME, organism-based; design: dose 1 mg/kg, time 24 hrs, route po
[6] = Drug uptake in BALB/c mouse Feces at 1 mg/kg, po; format: ADME, organism-based; conditions: in vivo
[7] = Oral bioavailability in BALB/c mouse at 1 mg/kg measured at 24 hrs; format: ADME, organism-based; conditions: in vivo
[8] = In vivo agonist activity at EP4 in po dosed C57BL/6J mouse assessed as increase in Ccl5 expression in colon administered for 3 days by qPCR analysis; format: organism-based; conditions: 72 h, dose 1-5 mg/kg, time 3 day
[9] = system: Mus musculus; experiment: In vivo agonist activity at EP4 in po dosed C57BL/6J mouse assessed as increase in renin level in plasma at 10 mg/kg, po measured after 2 hrs; format: functional, organism-based

Row | SMILES | Drug uptake [1] | Drug uptake [2] | Drug uptake [3] | Drug uptake [4] | Cmax [5] | Drug uptake [6] | bioavailability [7] | Activity [8] | Activity [9]
1 | O=C(CCCCCCN1C(=O)CC[C@@H]1/C=C/[C@@H](O)Cc1ccccc1)NS(=O)(=O)c1ccccc1 | Active | Active | Not Active |  |  |  |  |  | 
2 | O=C(O)CCCCCCN1C(=O)CC[C@@H]1/C=C/[C@@H](O)Cc1ccccc1 | Active | Active |  | Active | ~50 nM | Active | 3% |  | 
3 | O=C(CCCCCCN1C(=O)CC[C@@H]1/C=C/[C@@H](O)Cc1ccccc1)NNC(=O)C(=O)O |  |  |  |  |  |  |  | Dose-Dependent Effect | inactive
